Source: ChEMBL document CHEMBL1201862, “PubChem BioAssay data set” (2004)
One block for each compound: values may come before it. Calls of active or inactive are those of the source.

Tests used:
[1] = molecular target: T1, Lysine-specific demethylase 4C (Homo sapiens, UniProt Q9H3R0); assay: inhibition of JMJD2C H3K9me3 demethylation – biochemical, DELFIA europium, cherry-picked samples, dose response (AID 488835); assay type: functional
T1 sequence (Q9H3R0 whole entry): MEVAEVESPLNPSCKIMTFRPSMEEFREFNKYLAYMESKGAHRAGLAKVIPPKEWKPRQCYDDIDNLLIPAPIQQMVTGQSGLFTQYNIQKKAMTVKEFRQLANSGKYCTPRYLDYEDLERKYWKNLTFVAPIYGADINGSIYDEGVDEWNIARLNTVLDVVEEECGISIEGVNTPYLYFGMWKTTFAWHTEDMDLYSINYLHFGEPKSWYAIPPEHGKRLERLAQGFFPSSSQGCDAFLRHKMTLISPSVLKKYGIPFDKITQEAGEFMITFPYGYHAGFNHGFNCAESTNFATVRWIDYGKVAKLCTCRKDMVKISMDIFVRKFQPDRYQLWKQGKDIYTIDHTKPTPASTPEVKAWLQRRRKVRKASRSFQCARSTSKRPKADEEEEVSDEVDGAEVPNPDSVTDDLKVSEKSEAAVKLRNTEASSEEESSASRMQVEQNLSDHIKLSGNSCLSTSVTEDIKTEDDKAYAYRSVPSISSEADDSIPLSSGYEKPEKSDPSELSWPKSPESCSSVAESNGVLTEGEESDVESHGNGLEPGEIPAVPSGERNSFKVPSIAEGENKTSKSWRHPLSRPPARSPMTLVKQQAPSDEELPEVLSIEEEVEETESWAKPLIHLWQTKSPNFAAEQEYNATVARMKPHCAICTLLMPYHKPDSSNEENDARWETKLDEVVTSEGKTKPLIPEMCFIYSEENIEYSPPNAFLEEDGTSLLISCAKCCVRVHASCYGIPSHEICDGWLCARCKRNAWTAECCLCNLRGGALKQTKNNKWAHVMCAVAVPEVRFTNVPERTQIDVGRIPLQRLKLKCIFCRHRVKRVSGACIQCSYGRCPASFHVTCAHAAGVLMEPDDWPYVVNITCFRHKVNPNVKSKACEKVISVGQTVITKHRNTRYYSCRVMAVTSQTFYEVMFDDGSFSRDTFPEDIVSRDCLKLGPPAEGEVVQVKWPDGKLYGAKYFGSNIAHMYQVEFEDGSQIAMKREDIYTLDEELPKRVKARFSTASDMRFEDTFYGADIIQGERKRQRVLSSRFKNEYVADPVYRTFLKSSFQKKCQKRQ

cells = assay type: functional, cell-based
[2] = molecular target: Peroxisome proliferator-activated receptor gamma/Nuclear receptor coactivator 3 (Homo sapiens, UniProt P37231); assay: TR-FRET dose response biochemical High Throughput Screening assay for agonists of the steroid receptor coactivator 3 (SRC-3) recruitment by the peroxisome proliferator-activated receptor gamma (PPAR gamma): non-selective agonists. [Related pubchem assays: 1301 (Confirmation screen.), 1048 (Primary screen.)]; assay type: functional
Chain of Peroxisome proliferator-activated receptor gamma/Nuclear receptor coactivator 3 (P37231 whole entry): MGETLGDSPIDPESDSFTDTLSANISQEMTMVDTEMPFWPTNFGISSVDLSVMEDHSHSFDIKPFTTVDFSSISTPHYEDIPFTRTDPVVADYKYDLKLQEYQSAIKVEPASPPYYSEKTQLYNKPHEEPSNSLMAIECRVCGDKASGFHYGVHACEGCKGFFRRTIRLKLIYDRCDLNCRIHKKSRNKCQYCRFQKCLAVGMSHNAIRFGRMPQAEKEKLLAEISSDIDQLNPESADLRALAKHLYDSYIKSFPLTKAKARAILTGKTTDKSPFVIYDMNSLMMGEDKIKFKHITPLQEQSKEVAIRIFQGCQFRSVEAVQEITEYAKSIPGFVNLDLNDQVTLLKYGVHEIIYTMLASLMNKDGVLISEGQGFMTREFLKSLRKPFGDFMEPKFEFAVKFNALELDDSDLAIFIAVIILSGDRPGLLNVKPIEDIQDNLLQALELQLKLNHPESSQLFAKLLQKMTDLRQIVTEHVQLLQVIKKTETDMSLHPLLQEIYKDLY
Chain of Peroxisome proliferator-activated receptor gamma/Nuclear receptor coactivator 3 (Q9Y6Q9 whole entry, further chain): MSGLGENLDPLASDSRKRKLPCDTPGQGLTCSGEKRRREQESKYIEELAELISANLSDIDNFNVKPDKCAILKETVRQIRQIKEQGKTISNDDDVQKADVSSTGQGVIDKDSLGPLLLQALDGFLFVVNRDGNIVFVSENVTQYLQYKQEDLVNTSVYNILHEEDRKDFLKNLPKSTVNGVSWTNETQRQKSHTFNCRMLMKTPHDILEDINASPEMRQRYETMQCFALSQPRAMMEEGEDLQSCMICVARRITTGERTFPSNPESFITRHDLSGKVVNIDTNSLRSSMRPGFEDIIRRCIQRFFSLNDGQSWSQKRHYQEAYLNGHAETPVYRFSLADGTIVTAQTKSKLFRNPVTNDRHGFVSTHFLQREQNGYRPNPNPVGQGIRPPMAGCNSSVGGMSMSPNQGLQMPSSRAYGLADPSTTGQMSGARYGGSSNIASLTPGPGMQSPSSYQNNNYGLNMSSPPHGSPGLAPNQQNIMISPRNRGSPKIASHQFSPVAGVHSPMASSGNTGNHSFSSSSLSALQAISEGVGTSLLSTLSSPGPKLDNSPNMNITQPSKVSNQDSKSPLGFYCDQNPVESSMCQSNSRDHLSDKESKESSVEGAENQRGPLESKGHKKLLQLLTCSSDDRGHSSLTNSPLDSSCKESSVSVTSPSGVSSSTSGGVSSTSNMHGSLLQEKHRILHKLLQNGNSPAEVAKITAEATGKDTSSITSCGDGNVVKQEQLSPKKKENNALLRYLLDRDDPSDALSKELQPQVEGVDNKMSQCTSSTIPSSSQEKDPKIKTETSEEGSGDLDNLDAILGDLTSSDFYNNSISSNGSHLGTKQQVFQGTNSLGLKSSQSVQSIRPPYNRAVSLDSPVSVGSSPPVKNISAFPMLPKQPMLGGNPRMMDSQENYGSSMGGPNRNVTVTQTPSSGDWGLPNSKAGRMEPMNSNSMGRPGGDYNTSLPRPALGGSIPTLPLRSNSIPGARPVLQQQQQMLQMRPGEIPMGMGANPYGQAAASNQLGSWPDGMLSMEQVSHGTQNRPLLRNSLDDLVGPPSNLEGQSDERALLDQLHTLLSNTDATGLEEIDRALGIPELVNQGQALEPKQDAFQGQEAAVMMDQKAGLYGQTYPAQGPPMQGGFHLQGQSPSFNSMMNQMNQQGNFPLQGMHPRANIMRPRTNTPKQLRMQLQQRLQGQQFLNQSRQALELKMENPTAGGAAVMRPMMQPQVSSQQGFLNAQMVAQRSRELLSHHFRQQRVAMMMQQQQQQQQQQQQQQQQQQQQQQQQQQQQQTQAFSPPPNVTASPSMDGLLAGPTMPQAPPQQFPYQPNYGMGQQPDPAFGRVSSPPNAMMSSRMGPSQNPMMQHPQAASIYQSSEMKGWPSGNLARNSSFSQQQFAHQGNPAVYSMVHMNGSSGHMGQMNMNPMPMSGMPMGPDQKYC

[3] = molecular target: Peroxisome proliferator-activated receptor gamma/Nuclear receptor coactivator 2 (Homo sapiens, UniProt P37231); assay: (§1) TR-FRET dose response biochemical High Throughput Screening assay for agonists of the steroid receptor coactivator 2 (SRC-2) recruitment by the peroxisome proliferator-activated receptor gamma (PPAR gamma): non-selective agonists. [Related pubchem assays: 1297, 1032 ]; assay type: functional
[4] = molecular target: Peroxisome proliferator-activated receptor gamma/Nuclear receptor coactivator 1 (Homo sapiens, UniProt P37231); assay: as §1, with “1 (SRC-1)” for “2 (SRC-2)”, “assays (depositor defined):AID1300, AID1808, AID504735, AID631]” for “assays: 1297, 1032 ]”; assay type: protein assay
Chain of Peroxisome proliferator-activated receptor gamma/Nuclear receptor coactivator 1 (P37231 whole entry): as the sequence (P37231 whole entry) above
Chain of Peroxisome proliferator-activated receptor gamma/Nuclear receptor coactivator 1 (Q15788 whole entry, further chain): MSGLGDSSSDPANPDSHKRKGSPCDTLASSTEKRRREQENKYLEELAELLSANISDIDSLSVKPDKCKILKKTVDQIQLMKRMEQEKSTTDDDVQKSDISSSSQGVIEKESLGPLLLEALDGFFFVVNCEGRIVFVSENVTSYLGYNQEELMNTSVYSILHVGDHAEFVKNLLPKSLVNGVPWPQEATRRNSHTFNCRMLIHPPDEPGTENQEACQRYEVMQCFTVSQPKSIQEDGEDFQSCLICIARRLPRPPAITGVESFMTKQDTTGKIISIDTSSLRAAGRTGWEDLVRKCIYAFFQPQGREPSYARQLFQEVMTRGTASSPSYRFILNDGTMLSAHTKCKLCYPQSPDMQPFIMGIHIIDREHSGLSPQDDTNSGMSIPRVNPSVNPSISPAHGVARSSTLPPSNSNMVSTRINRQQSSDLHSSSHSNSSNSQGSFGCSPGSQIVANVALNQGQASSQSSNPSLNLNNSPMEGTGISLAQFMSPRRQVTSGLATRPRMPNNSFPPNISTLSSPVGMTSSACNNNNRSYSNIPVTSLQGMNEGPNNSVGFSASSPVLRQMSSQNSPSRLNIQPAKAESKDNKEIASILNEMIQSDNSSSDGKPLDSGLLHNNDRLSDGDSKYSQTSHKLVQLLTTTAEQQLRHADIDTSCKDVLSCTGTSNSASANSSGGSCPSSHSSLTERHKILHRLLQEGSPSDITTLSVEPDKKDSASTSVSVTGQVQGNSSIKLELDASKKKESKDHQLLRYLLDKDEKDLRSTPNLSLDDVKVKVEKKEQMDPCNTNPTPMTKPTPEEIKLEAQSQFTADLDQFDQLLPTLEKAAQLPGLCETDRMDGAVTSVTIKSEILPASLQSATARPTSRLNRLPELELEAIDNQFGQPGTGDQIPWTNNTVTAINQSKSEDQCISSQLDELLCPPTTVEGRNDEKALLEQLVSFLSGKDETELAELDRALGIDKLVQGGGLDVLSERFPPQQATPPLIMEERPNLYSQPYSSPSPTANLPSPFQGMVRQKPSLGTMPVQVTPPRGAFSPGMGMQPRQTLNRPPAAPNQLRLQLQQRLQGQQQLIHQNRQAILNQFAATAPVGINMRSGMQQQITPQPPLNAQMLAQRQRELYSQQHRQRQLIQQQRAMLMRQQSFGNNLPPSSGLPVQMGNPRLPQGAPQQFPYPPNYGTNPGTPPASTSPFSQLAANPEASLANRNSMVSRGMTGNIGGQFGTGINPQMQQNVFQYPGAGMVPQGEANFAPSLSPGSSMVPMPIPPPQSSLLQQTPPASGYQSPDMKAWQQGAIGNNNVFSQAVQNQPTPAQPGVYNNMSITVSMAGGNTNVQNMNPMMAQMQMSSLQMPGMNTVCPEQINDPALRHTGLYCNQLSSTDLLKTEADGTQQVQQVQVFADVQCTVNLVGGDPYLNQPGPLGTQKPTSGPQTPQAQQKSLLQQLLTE

A-375 = assay: MITF: Counter assay: A375 proliferation Measured in Cell-Based System Using Plate Reader - 2084-03_Inhibitor_Dose_DryPowder_Activity. [Related pubchem assays (depositor defined):AID488944]; assay type: functional; details: Homo sapiens
[5] = molecular target: T2, Microphthalmia-associated transcription factor (Homo sapiens, UniProt O75030); assay: reducers of TRPM1 reporter luminescence, concentration series – cell-based, SK-MEL-5, cherry-picked, set 3, MITF inhibitor project, dose response (AID 493073); assay type: functional;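 further: SK-MEL-5 melanoma cells with luciferase driven by the MITF target TRPM1 promoter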
T2 sequence (O75030 whole entry): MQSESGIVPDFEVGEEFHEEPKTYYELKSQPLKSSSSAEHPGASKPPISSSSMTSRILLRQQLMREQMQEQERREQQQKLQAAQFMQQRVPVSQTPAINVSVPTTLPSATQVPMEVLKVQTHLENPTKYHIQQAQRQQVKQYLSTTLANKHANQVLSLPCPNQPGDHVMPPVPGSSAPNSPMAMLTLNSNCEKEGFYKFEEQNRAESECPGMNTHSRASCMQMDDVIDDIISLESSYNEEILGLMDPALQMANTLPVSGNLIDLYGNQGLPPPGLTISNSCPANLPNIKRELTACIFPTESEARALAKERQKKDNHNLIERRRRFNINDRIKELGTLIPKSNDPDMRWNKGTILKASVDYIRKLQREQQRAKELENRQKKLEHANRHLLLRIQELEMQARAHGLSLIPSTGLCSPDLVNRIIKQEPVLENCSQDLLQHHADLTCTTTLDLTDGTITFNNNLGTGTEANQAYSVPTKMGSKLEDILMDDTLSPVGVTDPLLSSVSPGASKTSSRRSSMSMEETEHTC

Cytochrome P450 3A4 = Cytochrome P450 3A4 (Homo sapiens, UniProt P08684);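 further: CYP3A4 tested as one member of a cytochrome P450 panel screen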
Chain of Cytochrome P450 3A4 (P08684 whole entry): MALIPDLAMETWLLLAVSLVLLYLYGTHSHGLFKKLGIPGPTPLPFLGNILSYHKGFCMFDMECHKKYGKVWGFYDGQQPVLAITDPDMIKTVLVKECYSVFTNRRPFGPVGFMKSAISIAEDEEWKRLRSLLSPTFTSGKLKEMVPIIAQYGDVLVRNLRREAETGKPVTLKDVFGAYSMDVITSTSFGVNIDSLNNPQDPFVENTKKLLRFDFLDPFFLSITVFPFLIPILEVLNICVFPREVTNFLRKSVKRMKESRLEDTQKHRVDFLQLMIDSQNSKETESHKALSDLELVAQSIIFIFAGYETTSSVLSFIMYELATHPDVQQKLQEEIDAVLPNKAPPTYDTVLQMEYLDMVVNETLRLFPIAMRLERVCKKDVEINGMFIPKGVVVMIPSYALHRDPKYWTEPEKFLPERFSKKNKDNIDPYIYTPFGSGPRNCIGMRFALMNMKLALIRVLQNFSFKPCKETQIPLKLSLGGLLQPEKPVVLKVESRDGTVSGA

Cytochrome P450 1A2 = molecular target: T3, Cytochrome P450 1A2 (Homo sapiens, UniProt P05177);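 further: PubChem cytochrome P450 panel assay, CYP1A2 panel member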
T3 sequence (P05177 whole entry): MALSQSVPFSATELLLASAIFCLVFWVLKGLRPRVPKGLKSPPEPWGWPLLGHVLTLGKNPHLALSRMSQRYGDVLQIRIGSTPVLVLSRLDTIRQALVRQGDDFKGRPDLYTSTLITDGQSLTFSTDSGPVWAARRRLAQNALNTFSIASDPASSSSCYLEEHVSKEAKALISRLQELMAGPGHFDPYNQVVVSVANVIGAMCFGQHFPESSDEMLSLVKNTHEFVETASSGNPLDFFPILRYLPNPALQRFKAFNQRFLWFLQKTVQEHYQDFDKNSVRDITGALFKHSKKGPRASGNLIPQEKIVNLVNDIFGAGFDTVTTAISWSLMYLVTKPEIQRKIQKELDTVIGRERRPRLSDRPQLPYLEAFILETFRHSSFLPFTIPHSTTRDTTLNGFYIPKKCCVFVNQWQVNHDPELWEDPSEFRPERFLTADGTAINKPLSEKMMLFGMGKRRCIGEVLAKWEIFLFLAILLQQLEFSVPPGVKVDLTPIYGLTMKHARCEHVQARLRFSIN

HEK293 [6] = assay: optical interference in Abeta FP readout, dose response, artefact control for IDE activator project, biochemical, fluorescence polarization (AID 588442); assay type: functional, cell-based; details: Homo sapiens
HEK293 [7] = assay: membrane integrity loss in HEK cells – cell-based, fluorescence, cytotoxicity control for IDE activator project, dose response (AID 588440); assay type: functional; details: Homo sapiens;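 further: cytotoxicity by LDH release measuring loss of membrane integrity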
Insulin-degrading enzyme [8] = molecular target: T4, Insulin-degrading enzyme (Homo sapiens, UniProt P14735); assay: recombinant IDE activation, cell-free – biochemical, fluorescence polarization, counter-screen for IDE activator project, dose response (AID 588681)
T4 sequence (P14735 whole entry): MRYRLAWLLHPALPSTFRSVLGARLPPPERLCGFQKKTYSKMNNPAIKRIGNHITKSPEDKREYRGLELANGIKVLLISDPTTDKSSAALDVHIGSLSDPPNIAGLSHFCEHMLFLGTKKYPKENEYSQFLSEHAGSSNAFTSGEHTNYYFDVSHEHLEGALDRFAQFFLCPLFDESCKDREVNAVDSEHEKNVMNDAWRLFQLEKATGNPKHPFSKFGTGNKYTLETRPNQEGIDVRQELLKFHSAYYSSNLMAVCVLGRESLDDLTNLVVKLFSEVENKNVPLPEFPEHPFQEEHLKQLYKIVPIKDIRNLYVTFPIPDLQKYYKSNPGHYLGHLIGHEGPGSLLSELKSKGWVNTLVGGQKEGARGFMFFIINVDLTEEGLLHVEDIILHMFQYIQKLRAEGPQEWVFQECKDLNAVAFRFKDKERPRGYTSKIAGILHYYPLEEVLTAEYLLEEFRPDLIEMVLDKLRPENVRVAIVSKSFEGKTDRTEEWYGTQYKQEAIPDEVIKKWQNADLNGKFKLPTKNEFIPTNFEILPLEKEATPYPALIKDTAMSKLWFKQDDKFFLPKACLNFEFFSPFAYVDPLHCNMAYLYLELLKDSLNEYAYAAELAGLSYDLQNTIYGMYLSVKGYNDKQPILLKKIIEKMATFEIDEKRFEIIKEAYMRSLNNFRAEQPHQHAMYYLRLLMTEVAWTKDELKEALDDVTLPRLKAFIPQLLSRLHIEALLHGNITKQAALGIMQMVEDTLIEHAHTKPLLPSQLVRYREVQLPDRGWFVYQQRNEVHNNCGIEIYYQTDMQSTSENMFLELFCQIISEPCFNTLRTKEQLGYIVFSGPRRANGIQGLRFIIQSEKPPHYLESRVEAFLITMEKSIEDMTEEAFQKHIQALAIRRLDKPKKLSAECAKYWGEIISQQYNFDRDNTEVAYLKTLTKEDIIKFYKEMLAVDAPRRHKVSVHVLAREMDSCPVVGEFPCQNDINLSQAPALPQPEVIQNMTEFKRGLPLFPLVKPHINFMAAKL

Insulin-degrading enzyme [9] = molecular target: T4, Insulin-degrading enzyme; assay: cellular IDE activation of Abeta substrate cleavage – fluorescence polarization, HEK cells, dose response (AID 588439); assay type: functional, cell-based

SMILES: COC(=O)[C@@H](N)Cc1ccc(O)c(O)c1
AC50 [1]: 11.5 µM (active)

SMILES: COc1ccc(-c2csc(NNC3=NCCCCC3)n2)cc1
AC50 [1]: 7.08 µM (active) | EC50 (cells): > 350 µM (not active)

SMILES: COCCCNC(=O)C1CCN(C(=O)Nc2ccc(Cl)cc2)CC1
AC50 [1]: 44.8 µM (active)

SMILES: CCN1CCN(C2=C(NS(=O)(=O)c3ccc(C)cc3)C(=O)c3ccccc3C2=O)CC1
AC50 (A-375): 36.6 µM (active) | AC50 [5]: 4.18 µM (active)

SMILES: NC(CO)c1cn([C@@H](CCC(=O)O)C(=O)N2CCNCC2)nn1 (stereo not given in full)
EC50 (HEK293 [6]): > 55.9 µM (inactive) | IC50 (HEK293 [7]): > 89.2 µM (inactive) | EC50 (Insulin-degrading enzyme [8]): > 54.7 µM (inactive) | EC50 (Insulin-degrading enzyme [9]): > 54.7 µM (inactive)

Results, then the compound that gave them:

EC50 [2]: > 79.4 µM (not active) | EC50 [3]: > 79.4 µM (not active) | EC50 [4]: > 79.4 µM (inactive)
SMILES: CCn1c(=O)cc(SCC(=O)NCc2ccc3c(c2)OCO3)c2ccccc21

AC50 (Cytochrome P450 3A4): inconclusive | AC50 (Cytochrome P450 1A2): 1.58 µM (inconclusive)
SMILES: Cc1ccc2nc(SCc3nnc(-c4ccccc4[N+](=O)[O-])o3)c(C#N)cc2c1
